Converted amounts (≈) assume the structure as drawn. Like-named read-outs stand apart in the source and are kept apart here.
Legend:
[1] = test system: S. aureus ATCC 29213; assay: MIC test according to CLSI M7-A9, S. aureus ATCC 29213; assay type: cell-based; conditions: Staphylococcus aureus, read-out: S. aureus ATCC 29213 MIC at 24 h
Description: (§1) MIC Test (S. aureus ATCC 29213, S. aureus ATCC 43300 and S. aureus Newman)
(§2) Susceptibility testing of S. aureus ATCC 29213, ATCC 43300 and Newman was performed according to Clinical Laboratory Standard Institute (CLSI) guidelines M7-A9. Test articles were stored at room temperature prior to use, then dissolved in filtered sterile DMSO. Stock DMSO solutions were diluted further in cation-adjusted Mueller Hinton broth (CAMHB) to provide appropriate test concentrations. Cultures of S. aureus (ATCC 29213, ATCC 43300 or Newman) were added in accordance with CLSI guidelines and plates incubated at 37° C. in air for 24 h. Endpoints were determined visually (and by spectrophotometer at 600 nm) and the minimum inhibitory concentration (MIC) defined as the lowest concentration of test articles resulting in complete inhibition of visible bacterial growth. Results are detailed in Table 2 (S. aureus ATCC 29213 and ATCC 43300) and Table 3 (S. aureus ATCC 29213, ATCC 43300 and Newman).

[2] = test system: S. aureus ATCC 43300; assay: MIC test according to CLSI M7-A9, S. aureus ATCC 43300; assay type: cell-based; conditions: Staphylococcus aureus, read-out: S. aureus ATCC 43300 MIC at 24 h
Description: as §1, §2

[3] = ATCC29213, CLSI M7-A9, CAMHB, 24 h (Table 2)
[4] = ATCC43300, CLSI M7-A9, CAMHB, 24 h (Table 2)

| MIC [1, 3] | MIC [2, 4] | Compound | MIC ([1]; ATCC29213, 24 h) | MIC ([2]; ATCC43300, 24 h) |
| --- | --- | --- | --- | --- |
| 64 µg/mL (≈ 175 µM) | 64 µg/mL (≈ 175 µM) | CN1CCN(c2nc(-c3ccc(C(C)(C)C)cc3)nc3cc(=O)[nH]n23)CC1 [Example 18, 2-(4-tert-butylphenyl)-4-(4-methylpiperazin-1-yl)-6H,7H-pyrazolo[1,5-a][1,3,5]triazin-7-one] |  |  |
| 64 µg/mL (≈ 174 µM) | 128 µg/mL (≈ 348 µM) | CC(C)(C)c1ccc(-c2nc(N3CCC(O)CC3)n3[nH]c(=O)cc3n2)cc1 [Example 20, 2-(4-tert-butylphenyl)-4-(4-hydroxypiperidin-1-yl)-6H,7H-pyrazolo[1,5-a][1,3,5]triazin-7-one] |  |  |
| 32 µg/mL (≈ 69.9 µM) | > 128 µg/mL | CC(C)(C)c1ccc(-c2nc(N3CCC(OCc4ccccc4)CC3)n3[nH]c(=O)cc3n2)cc1 [Example 21, 4-[4-(benzyloxy)piperidin-1-yl]-2-(4-tert-butylphenyl)-6H,7H-pyrazolo[1,5-a][1,3,5]triazin-7-one] |  |  |
| 8 µg/mL (≈ 23.4 µM) | 32 µg/mL (≈ 93.7 µM) | CC(C)(C)c1ccc(-c2nc(NCCCO)n3[nH]c(=O)cc3n2)cc1 [Example 22, 2-(4-tert-butylphenyl)-4-[(3-hydroxypropyl)amino]-6H,7H-pyrazolo[1,5-a][1,3,5]triazin-7-one] |  |  |
| 4 µg/mL (≈ 9.96 µM) | 4 µg/mL (≈ 9.96 µM) | CC(C)(C)c1ccc(-c2nc(NCCCc3ccccc3)n3[nH]c(=O)cc3n2)cc1 [Example 23, 2-(4-tert-butylphenyl)-4-[(3-phenylpropyl)amino]-6H,7H-pyrazolo[1,5-a][1,3,5]triazin-7-one] |  |  |
|  |  | CC(C)(C)c1ccc(-c2nc(NCCCn3ccnc3)n3[nH]c(=O)cc3n2)cc1 [Example 24, 2-(4-tert-butylphenyl)-4-{[3-(1H-imidazol-1-yl)propyl]amino}-6H,7H-pyrazolo[1,5-a][1,3,5]triazin-7-one] | 64 µg/mL (≈ 163 µM) | 64 µg/mL (≈ 163 µM) |
| 64 µg/mL (≈ 181 µM) | 32 µg/mL (≈ 90.3 µM) | CN(C)CCNc1nc(-c2ccc(C(C)(C)C)cc2)nc2cc(=O)[nH]n12 [Example 25, 2-(4-tert-butylphenyl)-4-{[2-(dimethylamino)ethyl]amino}-6H,7H-pyrazolo[1,5-a][1,3,5]triazin-7-one] |  |  |
| 32 µg/mL (≈ 90 µM) | 32 µg/mL (≈ 90 µM) | CC(C)(O)CNc1nc(-c2ccc(C(C)(C)C)cc2)nc2cc(=O)[nH]n12 [Example 26, 2-(4-tert-butylphenyl)-4-[(2-hydroxy-2-methylpropyl)amino]-6H,7H-pyrazolo[1,5-a][1,3,5]triazin-7-one] |  |  |
| > 32 µg/mL | 32 µg/mL (≈ 103 µM) | CN(C)c1nc(-c2ccc(C(C)(C)C)cc2)nc2cc(=O)[nH]n12 [Example 32, 2-(4-tert-butylphenyl)-4-(dimethylamino)-6H,7H-pyrazolo[1,5-a][1,3,5]triazin-7-one] |  |  |
| 8 µg/mL (≈ 19.2 µM) | 8 µg/mL (≈ 19.2 µM) | CC(C)(C)c1ccc(-c2nc(NCCCOc3ccccc3)n3[nH]c(=O)cc3n2)cc1 [Example 33, 2-(4-tert-butylphenyl)-4-[(3-phenoxypropyl)amino]-6H,7H-pyrazolo[1,5-a][1,3,5]triazin-7-one] |  |  |
| 16 µg/mL (≈ 45.3 µM) | 16 µg/mL (≈ 45.3 µM) | CCCCN(C)c1nc(-c2ccc(C(C)(C)C)cc2)nc2cc(=O)[nH]n12 [Example 34, 4-[butyl(methyl)amino]-2-(4-tert-butylphenyl)-6H,7H-pyrazolo[1,5-a][1,3,5]triazin-7-one] |  |  |
| 8 µg/mL (≈ 17.5 µM) | 8 µg/mL (≈ 17.5 µM) | CC(C)(C)c1ccc(-c2nc(NC3CCN(Cc4ccccc4)CC3)n3[nH]c(=O)cc3n2)cc1 [Example 35, 4-[(1-benzylpiperidin-4-yl)amino]-2-(4-tert-butylphenyl)-6H,7H-pyrazolo[1,5-a][1,3,5]triazin-7-one] |  |  |
| 8 µg/mL (≈ 21.9 µM) | 8 µg/mL (≈ 21.9 µM) | CC(C)(C)c1ccc(-c2nc(NC3CCCCC3)n3[nH]c(=O)cc3n2)cc1 [Example 36, 2-(4-tert-butylphenyl)-4-(cyclohexylamino)-6H,7H-pyrazolo[1,5-a][1,3,5]triazin-7-one] |  |  |
| 32 µg/mL (≈ 75.7 µM) | 32 µg/mL (≈ 75.7 µM) | CC(C)(C)c1ccc(-c2nc(NCCCNC3CCCCC3)n3[nH]c(=O)cc3n2)cc1 [Example 39, 2-(4-tert-butylphenyl)-4-{[3-(cyclohexylamino)propyl]amino}-6H,7H-pyrazolo[1,5-a][1,3,5]triazin-7-one] |  |  |
| 128 µg/mL (≈ 301 µM) | 128 µg/mL (≈ 301 µM) | CC(C)(C)c1ccc(-c2nc(NCCCN3CCC(O)CC3)n3[nH]c(=O)cc3n2)cc1 [Example 40, 2-(4-tert-butylphenyl)-4-{[3-(4-hydroxypiperidin-1-yl)propyl]amino}-6H,7H-pyrazolo[1,5-a][1,3,5]triazin-7-one] |  |  |
| 128 µg/mL (≈ 312 µM) | 128 µg/mL (≈ 312 µM) | CC(C)(C)c1ccc(-c2nc(NCCCN3CCOCC3)n3[nH]c(=O)cc3n2)cc1 [Example 41, 2-(4-tert-butylphenyl)-4-{[3-(morpholin-4-yl)propyl]amino}-6H,7H-pyrazolo[1,5-a][1,3,5]triazin-7-one] |  |  |
| 8 µg/mL (≈ 17.5 µM) | 8 µg/mL (≈ 17.5 µM) | CC(C)(C)c1ccc(-c2nc(NCCCNC3Cc4ccccc4C3)n3[nH]c(=O)cc3n2)cc1 [Example 42, 2-(4-tert-butylphenyl)-4-({3-[(2,3-dihydro-1H-inden-2-yl)amino]propyl}amino)-6H,7H-pyrazolo[1,5-a][1,3,5]triazin-7-one] |  |  |
| 8 µg/mL (≈ 19.2 µM) | 8 µg/mL (≈ 19.2 µM) | CC(C)(C)c1ccc(-c2nc(NCCCNc3ccccc3)n3[nH]c(=O)cc3n2)cc1 [Example 43, 2-(4-tert-butylphenyl)-4-{[3-(phenylamino)propyl]amino}-6H,7H-pyrazolo[1,5-a][1,3,5]triazin-7-one] |  |  |
| 64 µg/mL (≈ 145 µM) | > 128 µg/mL | CC(C)(C)c1ccc(-c2nc(NCCCN3Cc4ccccc4C3)n3[nH]c(=O)cc3n2)cc1 [Example 44, 2-(4-tert-butylphenyl)-4-{[3-(2,3-dihydro-1H-isoindol-2-yl)propyl]amino}-6H,7H-pyrazolo[1,5-a][1,3,5]triazin-7-one] |  |  |
| > 32 µg/mL | > 32 µg/mL | CC(C)(C)c1ccc(-c2nc(NCCCOc3cnccn3)n3[nH]c(=O)cc3n2)cc1 [Example 50, 2-(4-tert-butylphenyl)-4-{[3-(pyrazin-2-yloxy)propyl]amino}-6H,7H-pyrazolo[1,5-a][1,3,5]triazin-7-one] |  |  |
| > 64 µg/mL | > 64 µg/mL | CC(C)(C)c1ccc(-c2nc(NCCCn3ccncc3=O)n3[nH]c(=O)cc3n2)cc1 [Example 51, 1-(3-{[2-(4-tert-butylphenyl)-7-oxo-6H,7H-pyrazolo[1,5-a][1,3,5]triazin-4-yl]amino}propyl)-1,2-dihydropyrazin-2-one] |  |  |
| 4 µg/mL (≈ 8.15 µM) | 4 µg/mL (≈ 8.15 µM) | Cc1cc(NC2CCN(c3nc(-c4ccc(C(C)(C)C)cc4)nc4cc(=O)[nH]n34)CC2)ccc1Cl [Example 54, 2-(4-tert-butylphenyl)-4-{4-[(4-chloro-3-methylphenyl)amino]piperidin-1-yl}-6H,7H-pyrazolo[1,5-a][1,3,5]triazin-7-one] |  |  |
| 32 µg/mL (≈ 69.5 µM) | 32 µg/mL (≈ 69.5 µM) | Cc1ncc(CN2CCC(Nc3nc(-c4ccc(C(C)(C)C)cc4)nc4cc(=O)[nH]n34)CC2)[nH]1 [Example 55, 2-(4-tert-butylphenyl)-4-({1-[(2-methyl-1H-imidazol-5-yl)methyl]piperidin-4-yl}amino)-6H,7H-pyrazolo[1,5-a][1,3,5]triazin-7-one] |  |  |
| 16 µg/mL (≈ 34 µM) | 8 µg/mL (≈ 17 µM) | CC(C)(C)c1ccc(-c2nc(NC3CCC(NCc4ccccc4)CC3)n3[nH]c(=O)cc3n2)cc1 (stereo not shown) [Example 56, 4-{[4-(benzylamino)cyclohexyl]amino}-2-(4-tert-butylphenyl)-6H,7H-pyrazolo[1,5-a][1,3,5]triazin-7-one] |  |  |
| 4 µg/mL (≈ 8.39 µM) | 8 µg/mL (≈ 16.8 µM) | Cc1cc(NCC2CN(c3nc(-c4ccc(C(C)(C)C)cc4)nc4cc(=O)[nH]n34)C2)ccc1Cl [Example 57, 2-(4-tert-butylphenyl)-4-(3-{[(4-chloro-3-methylphenyl)amino]methyl}azetidin-1-yl)-6H,7H-pyrazolo[1,5-a][1,3,5]triazin-7-one] |  |  |
| 64 µg/mL (≈ 130 µM) | 64 µg/mL (≈ 130 µM) | Cc1ccc(S(=O)(=O)CCCNc2nc(-c3ccc(C(C)(C)C)cc3)nc3cc(=O)[nH]n23)cc1C [Example 58, 2-(4-tert-butylphenyl)-4-{[3-(3,4-dimethylbenzenesulfonyl)propyl]amino}-6H,7H-pyrazolo[1,5-a][1,3,5]triazin-7-one] |  |  |
| 4 µg/mL (≈ 8.3 µM) | 8 µg/mL (≈ 16.6 µM) | Cc1cc(OCC(O)CNc2nc(-c3ccc(C(C)(C)C)cc3)nc3cc(=O)[nH]n23)ccc1Cl (stereo not shown) [Example 60, 2-(4-tert-butylphenyl)-4-{[3-(4-chloro-3-methylphenoxy)-2-hydroxypropyl]amino}-6H,7H-pyrazolo[1,5-a][1,3,5]triazin-7-one] |  |  |
| 32 µg/mL (≈ 73 µM) | 32 µg/mL (≈ 73 µM) | CC(C)(C)c1ccc(-c2nc(NCC(O)CNC3CCCCC3)n3[nH]c(=O)cc3n2)cc1 (stereo not shown) [Example 61, 2-(4-tert-butylphenyl)-4-{[3-(cyclohexylamino)-2-hydroxypropyl]amino}-6H,7H-pyrazolo[1,5-a][1,3,5]triazin-7-one] |  |  |
| 4 µg/mL (≈ 8.15 µM) | 16 µg/mL (≈ 32.6 µM) | Cc1cc(N2CCC(Nc3nc(-c4ccc(C(C)(C)C)cc4)nc4cc(=O)[nH]n34)CC2)ccc1Cl [Example 62, 2-(4-tert-butylphenyl)-4-{[1-(4-chloro-3-methylphenyl)piperidin-4-yl]amino}-6H,7H-pyrazolo[1,5-a][1,3,5]triazin-7-one] |  |  |

From US20180162862A1 (President and Fellows of Harvard College, priority 2015, published 2018)
